Reference: US6495537B1, “Method for inhibition of photocarcinogenesis or photoimmunosuppression using niacin” (University of Kentucky Research Foundation, priority 1998, dated 2002)
Where two headings read alike, the source gives them in different places.

Legend:
[1] = test system: UV-induced skin tumors; settings: for number of tumors per mouse: 26.5 weeks after first UV treatment, basal diet 0.72; for skin tumor incidence: UV-irradiated mice, 26.5 weeks after first UV exposure, unsupplemented 68%
Procedure: Six-week-old specific-pathogen-free female BALB/cAnNTacfBR (H-2^d) mice were purchased from Taconic Laboratory Animals (Germantown, N.Y.) and quarantined from two weeks before treatment. Animals were housed in microisolators under barrier conditions with a 12:12-hour light-dark cycle at 20+/−2° C. (SD).
(§1) Groups of 25 mice each received the basal diet which consisted of the American Institute of Nutrition 76A rodent diet containing 10% corn oil and 30 mg niacin per kilogram diet, supplemented with 0, 0.1, 0.5, or 1.0% niacin (Dyets Inc. Bethlehem, Pa.). All diets were pelleted (Dyets Inc.) without heat or steam and stored under refrigeration for less than 10 weeks. Animals were fed ad libitum and given fresh diet three times per week for three weeks before UV treatments began, and throughout the study. Niacin intakes were calculated from the diet consumed. Animals were supplied with sterilized water ad libitum.
(§2) The mice were exposed to UV radiation after three weeks of oral niacin administration. The animals were shaved dorsally with animal clippers each week. The filter tops, food, and water bottles were removed from the microisolators while mice were exposed to UV radiation emitted by banks of six FS40 Westinghouse fluorescent sun lamps for 30 min per day, five days per week. This UV regimen continued for 22 weeks in the carcinogenesis experiments, and for 11 weeks in the passive transfer assay experiments. The cages were systemically rotated during the study to compensate for any differences in flux at different positions under the lamps. The FS40 lamps emit a continuous spectrum from 270 to 390 nm with peak emission at 313 nm. About 75% of the energy output is in the wavelength range of 280-340 nm with about 23% in the 340-390 nm range. The total UVB radiation dose was approximately 1.41×10^6 Jm^−2 in the carcinogenesis experiments, and about […] in the passive transfer experiments, as measured with a UVX Digital Radiometer with a UVX-31 sensor (Ultraviolet Products, San Gabriel, Calif.).
(§3) Differences in primary tumor incidence between the experimental groups were analyzed by the Wilcoxon rank sum test. […] For the NAD assay, the Q test was first applied to the data to determine whether questionable values should be rejected. This test was conducted at the 95% confidence level. The data were then analyzed using the MIXED procedure in the statistical analysis program SAS 6.11. […] In this manner, it was possible to first account for differences and variability in duplicate or triplicate samples from the same mouse before the differences between each mouse in each group was compared. This procedure resulting in more precise group means than if each single value carried equal weight. Least-squares means for each group were calculated, and a multiple comparison between these means was made after applying a Tukey-Kramer adjustment for the p-values.
Groups of 25 mice each were fed the AIN76A rodent diet containing 10% corn oil and 30 mg niacin per kilogram diet, supplemented with 0, 0.1, 0.5, or 1.0% niacin. After three weeks of this diet, dorsally shaved mice were exposed to UV radiation for 30 min per day, five days per week for 22 weeks.

[2] = test system: UVM12 tumor cells; settings: 32 days after tumor challenge, 0% niacin 91.6, unirradiated control 21.9
Procedure: as §2, §3

[3] = test system: skin NAD
Procedure: as §3

[4] = for Body Weight: mean; for Food Consumed: mean (SD)
Procedure: as §1
Niacin ingestion was calculated from diet consumption recorded on 50% of the animals of each group.

[5] = diet supplemented with 0.1% niacin

## O=C(O)c1cccnc1 [niacin]
[1]; [5]
  number of tumors per mouse: 0.6%
  skin tumor incidence: 60%
[1]; diet supplemented with 0.5% niacin
  number of tumors per mouse: 0.48%
[1]; diet supplemented with 0.5% niacin, p=0.0257
  skin tumor incidence: 48%
[1]; diet supplemented with 1.0% niacin
  number of tumors per mouse: 0.4%
[1]; diet supplemented with 1.0% niacin, p=0.0257
  skin tumor incidence: 28%
[2]; recipients of splenocytes from UVB-irradiated donors on 0.1% niacin
  mean tumor size: 79.8(+/−11.5) sq mm
[2]; recipients of splenocytes from UVB-irradiated donors on 0.5% niacin
  mean tumor size: 41.9 (+/−11.7) sq mm
[2]; recipients of splenocytes from UVB-irradiated donors on 1.0% niacin
  mean tumor size: 13.2(+/−4.1) sq mm
[3]; 0.5% niacin supplementation, p<0.0001 dorsal skin, p=0.0114 ventral skin
  skin NAD content vs UV-irradiated mice receiving no additional niacin: significantly higher skin NAD content
[3]; 1.0% niacin supplementation, p=0.0025 dorsal skin, p=0.0017 ventral skin
  skin NAD content vs UV-irradiated mice receiving no additional niacin: significantly higher skin NAD content
[4]; 0.1, 0.5 or 1.0% niacin diets vs basal diet
  body weights of UV-irradiated mice, with or without supplemental niacin: similar
[4]; +UV +0.1% niacin diet
  Body Weight: 18.2 grams
  Food Consumed: 2.47 (0.54) g/mouse/day
[4]; +UV +0.5% niacin diet
  Body Weight: 18.07 grams
  Food Consumed: 2.77 (0.66) g/mouse/day
[4]; +UV +1% niacin diet
  Body Weight: 18.55 grams
  Food Consumed: 2.88 (0.60) g/mouse/day
